The text below walks through data of patent US20230059785A1, “METHODS FOR ENHANCING T CELLS USING VENETOCLAX” (University Health Network, priority 2020, published 2023).

In data set [1] the test system is DNTs treated with 400 nM Ven. The data set can be described thus: Co-treatment of DNT cells with Venetoclax and ROS scavenger NAC. The data set is classed as cell-based, human.
Protocol: (C) To determine the functional relevance of increased ROS level in Ven treated DNTs, ROS level in DNTs treated with 400 nM Ven in the presence of various concentrations of ROS-scavenger, N-acetylcysteine (NAC), and these cells were used as effector cells against AML during an in vitro killing assay. The result shown is representative of three independent experiments. […] (H-K) DNT (H and I) or Tconv cells (J and K) were treated with 0 nM, 100 nM, or 400 nM Venetoclax for 4 hours, 18 hours and 2 days. Cells were stained with CellROX (H and J) or MitoSOX (I and K). MFI of cellular or mitochondrial (mt) ROS was measured by flow cytometry. Data represent the mean ±SEM of results from four different donor T cells. (L) DNTs treated with 400 nM Venetoclax with or without 2 mM NAC for 18 hours. […] MFI of CD25 and CD69 were measured by flow cytometry. Experiments were done in triplicates, and the data shown is representative of two independent experiments done using DNTs from two donors. (M) DNT cells were treated with 400 nM Venetoclax for 18 hours.
The subject of data set [2] is OCI-AML2. The data set can be described thus: DNT cells pre-treated with Bcl-2 family protein inhibitors, used as effectors against OCI-AML2. The following applies: overnight pre-treatment, different concentrations. The source says:
FIG. 5. […] (A) DNT cells were pre-treated with different concentrations of Obatoclax, ABT-737, or Venetoclax overnight and were used as effector cells against OCI-AML2. […] (C) Expression of Bcl-xL and Bcl-2 on ex vivo expanded DNT cells from three donors (UPN38, UPN108, and UPN134) and AML cell lines, OCI-AML2, TEX, NB4, and K562 determined by Western blot. Tubulin was used as a loading control.
As Bcl-2 is well-known to protect cells from apoptosis, one would expect that inhibiting this pathway would lead to increased T cell apoptosis and dampened T cell function.

Data set [3] deals with DNTs. The data set can be described thus: Viability of DNTs treated with Venetoclax (Annexin V staining and flow cytometry). The class given is cell-based, human. The following applies: Venetoclax 18 h. The protocol:
FIG. 10. […] (A) Viability of DNTs and OCI-AML2 cells treated with 400 nM Venetoclax for 18 hours was determined by Annexin V staining and flow cytometry. (B and C) DNTs were treated with increasing concentrations of Venetoclax for 18 h. Subsequently, their viability (B) and cytotoxicity (C) against OCI-AML2 and two primary AML cells (090765 and 110162) were determined. ANOVA was used for statistics. ****p<0.0001.
For orientation: In flow cytometry, cells or beads pass a laser one at a time.

The subject of data set [4] is AML cell lines, OCI-AML2, OCI-AML3, and KG1a. The data set can be described thus: In vitro killing assay with Ven-pretreated DNT cells against AML cell lines. The data set is classed as cell-based, human. The following applies: Ven 50, 100, 200, 400 nM overnight. Here is the method: (§1) FIG. 2. Venetoclax enhances T cell mediated cytotoxicity against AML in vitro. (A) To validate the finding from the drug screening, in vitro killing assay was conducted with DNT cells untreated or pretreated with various concentrations of Ven (50 nM, 100 nM, 200 nM, 400 nM) for overnight against AML cell lines, OCI-AML2, OCI-AML3, and KG1a. The data is representative of four biological replicates. (B) In vitro cytotoxicity assay using DNT cells pretreated with 400 nM Ven as effectors against primary AML patient samples (n=17). (C) To determine the activity of DNT cells with or without Ven-treatment against leukemia initiating cells, untreated AML or AML treated with untreated or Ven-treated DNT cells were seeded at 10^3 cells per ml in a methylcellulose-based colony forming assay, and the number of colonies formed were determined 10 days after. The experiment was done with OCI-AML2 and KG1a, as well as patient samples 140372, 100857, 110162 and 141065. […] The experiment was done using DNT cells from two different donors (UPN119 and UPN38). (E) Correlation between the susceptibility of AML to DNT cells and the degree of increase in DNT cell-mediated cytotoxicity by Ven treatment. […] Subsequently, they were cultured with OCI-AML2 at 1:1, 2:1, or 4:1 DNT:AML ratio, and the viability of AML cells were measured by Annexin V staining and flow cytometry. […]

Data set [5] deals with DNT cells. The data set can be described thus: Glycolysis, glycolytic capacity and oxygen consumption rate of DNT cells. The class given is cell-based, human.
Data set [6] has as its system autologous and allogeneic PBMCs. The data set can be described thus: Cytotoxicity of DNT cells against normal blood cells. The class given is cell-based, human. The following applies: PBMCs from healthy donors. The source says:
To determine if Ven increases the cytotoxicity of DNT cells against normal blood cells, autologous and allogeneic PBMCs from healthy donors were used as targets.

In data set [7] the test system is primary AML patient samples. The data set is classed as cell-based, human. Here is the method:
as §1, with “UPN38).” for “UPN38). (E) Correlation between the susceptibility of AML to DNT cells and the degree of increase in DNT cell-mediated cytotoxicity by Ven treatment.”
FIG. 11. […] The increase in DNT-mediated cytotoxicity by Venetoclax treatment was determined against each patient sample type. […]

The subject of data set [8] is human AML cell line, OCI-AML2. In words: Drug screening assay: DNT cells pretreated with 269 approved drugs, then used as effectors against AML. The data set is classed as cell-based. The following applies: DNT cells treated at 400 nM overnight, washed, cultured with AML cells two hours; library of 269 drugs. The protocol: FIG. 1. Drug screening assay identifies Venetoclax as the top hit for enhancing cytotoxicity of T cells against AML. Schematic diagram of drug screening assay done to identify clinically approved drugs that can be used in combination with DNT cells to yield in synergistic anti-tumor activity. DNT cells were treated with 269 different clinically approved drugs at 400 nM for overnight. Subsequently, compound-treated cells were washed and then cultured with AML cells for two-hours.
To identify molecules that increase the potency of T cell mediated cytotoxicity against AML, ex vivo expanded DNT cells were used as a surrogate for anti-leukemic T cells and pretreated with a compound library of 269 drugs approved for various clinical uses. Subsequently, compound-treated cells were used as effectors against human AML cell line, OCI-AML2.

Data set [9] concerns DNT and Tconv cells. The data set can be described thus: Viability of DNT and Tconv cells after Venetoclax treatment. The class given is cell-based, human. The following applies: Venetoclax 100 nM or 400 nM, 4 hours. The protocol:
(§2) Venetoclax rapidly and directly increases cytotoxicity of T cells against AML. DNT (top panels) and Tconv cells (bottom panels) untreated or treated with Venetoclax (100 nM and 400 nM) for 4 h, 18 h, and 3 days. Subsequently, their cytotoxicity against OCI-AML2 was determined. Data represent the mean ±SEM of results from four different donor T cells. FIG. 4(C). DNT and Tconv cells untreated or treated with Venetoclax (100 nM or 400 nM) for 4 hours. Subsequently, their viability was determined. Data represent the mean ±SEM of results from four different donor T cells.
(§3) To elucidate the underlying mechanism by which Ven-mediates increased cytotoxicity of T cells, the expression of T cell activation markers and effector molecules on DNT cells with or without Ven treatment was compared. […] Thus, Venetoclax directly activates effector T cells to increase their cytotoxicity without depleting naïve or inhibitory T cell subsets.

Data set [10] concerns OCI-AML2. The data set can be described thus: Time course of Venetoclax treatment of DNT and Tconv cells, cytotoxicity against OCI-AML2. The data set is classed as cell-based, human. The following applies: DNTs and Tconv cells; Venetoclax 100 nM and 400 nM; 4 hours up to 3 days. Here is the method:
as §2, §3

Data set [11] has as its system AML cell lines, OCI-AML2, OCI-AML3, and KG1a. In words: In vitro killing assay with Ven-pretreated Tconv cells against AML cell lines. The class given is cell-based, human. The following applies: Ven 25-400 nM. Here is the method:
FIG. 4(A). Venetoclax enhances anti-leukemic activity of CD4^+ or CD8^+ conventional T cells. Ex vivo expanded Tconv cells untreated or treated with various concentrations of Ven (25 nM, 50 nM, 100 nM, 200 nM, or 400 nM), were used as effector cells against AML cell lines, OCI-AML2, OCI-AML3, and KG1a. The result shown represents four biological replicates. FIG. 4(B).
While treating DNT cells with Ven to enhance their anti-leukemic activity may be beneficial for DNT-therapy, experiments were performed to determine whether Ven has an effect on the anti-leukemic activity of CD4^+ or CD8^+ conventional T (Tconv) cells as Tconv cells are more wildly used as cancer immunotherapy clinically. To this end, polyclonally activated Tconv cells were pre-treated with different concentrations of Ven prior to their co-culture with […]

Data set [12] has as its system DNTs. In words: Effect of other ROS-inducing reagents on DNT ROS level and viability. The following applies: 18 hours; cytarabine 0-3 μM, antimycin 0-250 nM, daunorubicin 0-10 μM. The protocol: (§4) FIG. 15. Effect of other known ROS-inducing reagents on DNT viability, ROS level, and cytotoxicity against AML. DNTs were treated with increasing concentrations of cytarabine (0-3 μM), antimycin (0-250 nM) or daunorubicin (0-10 μM) for 18 hours. Subsequently, the level of cellar ROS in the DNTs (A), DNT viability (B), and cytotoxicity against OCI-AML2 (C) were determined.
(§5) To determine the effect of other ROS-inducing agents on DNT-mediated cytotoxicity, DNTs were treated with increasing concentrations of cytarabine, daunorubicin, and antimycin.

Data set [13] relates to OCI-AML2. The data set can be described thus: Effect of other ROS-inducing reagents on DNT cytotoxicity against OCI-AML2. The following applies: 18 hours; cytarabine 0-3 μM, antimycin 0-250 nM, daunorubicin 0-10 μM. Here is the method: as §4, §5

`CC(=O)N[C@@H](CS)C(=O)O` [NAC, N-acetylcysteine]: the “upregulation of activation markers (CD25 and CD69) by Venetoclax” value in data set [1] (400 nM Venetoclax with 2 mM NAC, 18 hours) was “blocked the upregulation of activation markers”. For the same compound, in [1] (co-treatment with 400 nM Ven), the “DNT cell-mediated cytotoxicity against AML” value is recorded as “abrogated the effect of Venetoclax on DNT cell-mediated cytotoxicity against AML” and the “cellular ROS level in Venetoclax-treated DNT cells” value was “reduced the cellular ROS level”.
`COC1=CC(c2cc3ccccc3[nH]2)=N/C1=C\c1[nH]c(C)cc1C` [Obatoclax]: the “effect on DNT cells and their cytotoxicity against OCI-AML2” value in data set [2] is reported as “induced DNT cell death or inhibited their cytotoxicity”.
As for `CC1(C)CCC(CN2CCN(c3ccc(C(=O)NS(=O)(=O)c4ccc(NCC5CCOCC5)c([N+](=O)[O-])c4)c(Oc4cnc5[nH]ccc5c4)c3)CC2)=C(c2ccc(Cl)cc2)C1` [Venetoclax], in data set [3], the “viability of DNTs” value was “without reducing the viability of the DNTs”. Further, in [4], the “cytotoxicity of Ven-pretreated DNT cells against AML cell lines” value was “increased cytotoxicity of DNT cells against three different AML cell lines, AML2-OCI, AML3-OCI, and KG1a, in a dose-dependent manner”. In addition, the “glycolysis, glycolytic capacity, and basal oxygen consumption rate of DNT cells” value in data set [5] is given as “no significant effect”. The “killing of autologous and allogeneic PBMCs by Ven-treated DNT cells” value in data set [6] was “insignificant degree of killing”. Besides, the “correlation between susceptibility of AML to DNT cells and degree of increase in DNT cell-mediated cytotoxicity by Ven treatment” value in data set [7] was “clear inverse correlation”. The “change in cytotoxicity mediated by DNT cells against AML cells relative to untreated DNT cells” value in [8] is on record as “increased the cytotoxicity of DNT cells the most”. Further, the T cell viability result in data set [9] was “without changing the T cell viability”. Further, the “T cell cytotoxicity against AML after different treatment times” value in data set [10] was “increased T cell cytotoxicity against AML”. Also, the “cytotoxicity of Ven-pretreated Tconv cells against AML cell lines” value in [11] was “significant enhancement of cytotoxicity of Tconv cells”.
On to `Nc1ccn([C@@H]2O[C@H](CO)[C@@H](O)[C@@H]2O)c(=O)n1` [cytarabine], for which the “level of cellular ROS in DNTs” value in [12] is reported as “Increased ROS levels”.
Same read-out and setting: the result for `COc1cccc2c1C(=O)c1c(O)c3c(c(O)c1C2=O)C[C@@](O)(C(C)=O)C[C@@H]3O[C@H]1C[C@H](N)[C@H](O)[C@H](C)O1` [daunorubicin] reads “lower ROS level”.
For antimycin, in data set [13], the “DNT-mediated cytotoxicity against OCI-AML2” value is “did not enhance the cytotoxicity of DNTs”. Further, in data set [12], the DNT viability result was “no to little loss of viability” and the “level of cellular ROS in DNTs” value is “Increased ROS levels”.
